The values below come from PMC6014988, “Precision therapeutic targeting of human cancer cell motility” (Nature Communications, 2018).

In general, viability refers to the share of living cells, or the viability signal relative to a control. Low readings indicate a greater loss of cells, high ones better survival. Broadly, the IC20 is the concentration at which the effect reaches the 20% level. Read a low IC20 as greater potency. In general, IC50 refers to the concentration that gives 50% inhibition. A high value points to weaker potency.

Molecules are shown by their SMILES.

One series has as its system PC3-M cells. In words: Boyden chamber cell invasion assay, PC3-M cells. Type of series: cell-based, human. As to conditions: PC3-M cells, 10 µM compound, 3 days. The protocol:
Boyden chamber cell invasion assays were performed as previously described by us[30], using either denatured collagen (BD Biosciences) or type IV human collagen (BD Biosciences), with all experiments repeated, each in N = 4 replicates. In some experiments, as indicated, cells were transfected with an expression plasmid, using Lipofectamine 2000™ (Invitrogen), or with siRNA, using DharmaFect Duo (Thermo Scientific) and co-transfected with β-Galactosidase (Plasmid pCMV•SPORT-βgal; Life Technology). […]
For cell invasion, PC3-M cells […]
were treated with 10 µM compound for a total of 3 days, and cell invasion assays were run at the end of the 3 day period, in the presence of compound. Values are the mean±SEM of three separate experiments, each run in replicates of N=3. […]
assays were performed with PC3-M cells. Values are the mean±SEM of a single experiment, in replicates of N=4, repeated at least once (also N=4). […]

The test system of another series is over 9000 human proteins. In words: ProtoArray Human Protein Microarray binding assay. As to conditions: levels >/= 10 fold above background. The protocol:
The ProtoArray® assay, using the Human Protein Microarray platform, was performed by Invitrogen. […]
followed by detection with FITC-streptavidin, and visualization by fluorescent microscopy (with equal exposure times). (d) Protein array hybridization. KBU2046-biotin was hybridized to ProtoArray® Human Protein Microarray’s at 0.5 and 10 µM with and without 10 fold excess free KBU2046. We first sought proteins that met the following criteria, and did so at both 0.5 and 10 µM concentrations of KBU2046-biotin (in the absence of free KBU2046): Z-Score greater than 2.5, Z-Factor greater than 0.5, CI P-value less than 0.05, negative control value <2,000 (relative fluorescence units; RFUs), and a signal/negative control signal of >10 and >5 for 10 µM and 0.5 µM conditions, respectively. This yielded 3 proteins, shown in table, for an initial hit rate of 0.03%. We then required free KBU2046 to inhibit binding by >75%. Of the two remaining candidates, we eliminated isovaleryl-CoA dehydrogenase (ICD). Its binding signal doubled on […]
suspected non-specific binding by the biotin-linker moiety. We deemed cysteine and glycine-rich protein 1 (CSRP1) our top priority protein, though its binding characteristics at 10 µM + free KBU2046 were similar to ICD, albeit not as extreme. We thus evaluated whether KBU2046- […]
There were two additional notable findings from protein array studies. […]

A short description of series [1]: Three-day MTT cell growth inhibition assay, PC3M. The series is classed as cell-based, human. Conditions: human; PC3M; 3 days. An excerpt: (§1) Assays were in replicates of N = 3, and were repeated. […]
(§2) Values are the mean±SEM of a single experiment, in
(§3) replicates of N=4, repeated at least once (also N=4).
(§4) Supplementary Figure 1b. Synthetic round #2.

Another series concerns PC3M. In words: Three-day MTT cell growth inhibition assay, PC3M. The series is classed as cell-based, human. As to conditions: Homo sapiens, PC-3M, 72 h, PC3M.
Description: as §1, §2, §3, §4

Series [2] is described as follows: Three-day MTT cell growth inhibition assay, PC3. Type of series: cell-based, human. Conditions: human, PC3 cells.
The subject of a further series is PC3. In words: Three-day MTT cell growth inhibition assay, PC3. As to conditions: Homo sapiens, PC-3, 72 h, 3 days. The series is classed as cell-based, human.
Series [3] is described as follows: Three-day MTT cell growth inhibition assay, 1542NPTX. As to conditions: human, 1542NPTX cells. The series is classed as cell-based, human.
For another series, the system named is 1542NPTX. The series is described as above. Type of series: cell-based, human. As to conditions: Homo sapiens, 72 h, 3 days.
A short description of series [4]: Three-day MTT cell growth inhibition assay, 1542CPTX. Type of series: cell-based, human. As to conditions: human, 1542CPTX cells.
The next series has as its system 1542CPTX. The series is described as above. The series is classed as cell-based, human. Conditions: Homo sapiens, 72 h, 3 days.
Series [5] in a line: Three-day MTT cell growth inhibition assay, 1532NPTX. Type of series: cell-based, human. Conditions: human, 1532NPTX cells.
The test system of the next series is 1532NPTX. The description is as above. The series is classed as cell-based, human. Conditions: Homo sapiens, 72 h, 3 days.
Series [6] in a line: Three-day MTT cell growth inhibition assay, 1532CPTX. The series is classed as cell-based, human. As to conditions: human, 1532CPTX cells.
For the next series, the system named is 1532CPTX. Described as above. The series is classed as cell-based, human. As to conditions: Homo sapiens, 72 h, 3 days.
Series [7] has as its system protein phosphorylation in PC3-M and PC3 cells. Briefly: KinomeView phospho-motif antibody screen. The series is classed as cell-based, human. As to conditions: 10 µM, 3 days, ± TGFβ. The protocol:
The Kinoview™ and PhosphoScan™ assays were performed by Cell Signaling Technology Inc.
Supplementary Figure 10. Proteomic analysis of the effects of KBU2046 on the kinome. (a-c) Screening for effects on the kinome. PC3-M cells were pre-treated with 10 µM KBU2046, genistein or vehicle control for 3 days, then with ± TGFβ, as indicated. Resultant cell lysate, as well as lysate from tumors from mice treated with 150 mg/kg KBU2046 or control mice (from manuscript Figure 2a), were then probed with the KinomeView® panel of antibodies by Western blot. In instances where KBU2046 was inhibiting protein phosphorylation in cells and in tumors, a repeat experiment of PC3-M cells was conducted (Experiment #2). In addition to including PC3-M cells, as in Experiment #1, Experiment #2 expanded to examine effects on PC3 cells. (a) The identification of an 83 kDa band of interest (red arrows). This constitutes the only change […]
as in tumor tissue. […] (c) All […]
other Western blots of phospho-motif antibodies that were evaluated on initial screen. NI = tumor not informative; this denotes a tumor sample that yielded an abnormal coomassie blue staining pattern. Data from this sample was therefore not considered further.
(also on this page, place not known: cat #C32G12; tPE cat #2981; sRXY, FXs NI NI cat #2351; tXR cat #23C8D12; RXRXX(s/t) NI NI)
(1 picture or pasted object on this page, not shown here)

Series [8] has as its system human prostate cells (PC3, PC3-M, 1532NPTX, 1542NPTX, 1532CPTX, 1542CPTX). On the set-up: method as in PMID 15833883. As to conditions: human PCa cells, nanomolar concentrations; cited from earlier work.
In series [9] the test system is human PCa PC3-M cell orthotopic implants. Also on record: method as in PMID 18339885. Conditions: murine orthotopic model; cited from earlier work.
In a further series the target is MKK4 (Homo sapiens, UniProt P45985). Also on record: method as in PMID 19638505. As to conditions: low nanomolar concentrations; cited from earlier work.
Sequence of MKK4 (P45985 whole entry): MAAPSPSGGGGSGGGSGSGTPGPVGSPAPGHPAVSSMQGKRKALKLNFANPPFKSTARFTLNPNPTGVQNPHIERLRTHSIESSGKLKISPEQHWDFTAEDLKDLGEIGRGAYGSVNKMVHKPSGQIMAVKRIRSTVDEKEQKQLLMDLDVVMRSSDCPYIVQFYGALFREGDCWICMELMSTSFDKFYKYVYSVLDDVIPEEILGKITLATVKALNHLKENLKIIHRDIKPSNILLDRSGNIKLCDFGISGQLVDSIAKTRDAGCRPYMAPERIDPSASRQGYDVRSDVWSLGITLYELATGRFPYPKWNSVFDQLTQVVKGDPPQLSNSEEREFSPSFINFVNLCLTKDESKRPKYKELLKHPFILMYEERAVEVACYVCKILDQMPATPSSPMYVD
Series [10] concerns matrix metalloproteinase 2 (MMP-2). Also on record: method as in PMID 19638505. As to conditions: prospective human trial; cited from earlier work.

Regarding `O=c1c(-c2ccc(O)cc2)coc2cccc(O)c12` [compound 8], the anti-invasion activity entry in the series on PC3-M cells is on record as “does not affect activity”.
Regarding `CN[C@@H]1C[C@H]2O[C@@](C)([C@@H]1OC)n1c3ccccc3c3c4c(c5c6ccccc6n2c5c31)C(=O)NC4` [staurosporine], the “number of proteins bound” value with over 9000 human proteins was found to be 214.
Consider `O=c1c(-c2ccc(O)cc2)coc2cc(O)cc(O)c12` [Genistein, 4′,5,7-trihydroxyisoflavone, reference compound], for which the viability at 3 days, 50 µM in [1] was 46.2%; in series [2], 39.3%; in series [3], 80.5%; in [4] it was 77.4%; in series [5], 66.9%; in series [6], 71.7%. Besides, the IC20 with PC3M (concentration inhibiting cell growth by 20% after 3 days) came to 17.5 µM; with PC3, 18 µM; with 1542NPTX, 18.7 µM; with 1542CPTX, 24.7 µM; in the series with 1532NPTX, 23 µM; with 1532CPTX it was 30.8 µM. Moreover, the IC50 in the series with PC3M (concentration inhibiting cell growth by 50% after 3 days) was 45.3 µM; with PC3, 41.7 µM; in the series with 1542NPTX, over 50 µM; in the series with 1542CPTX, over 50 µM; in the series on 1532NPTX it was over 50 µM; with 1532CPTX, over 50 µM. Moreover, the “changes in protein phosphorylation” value in series [7] is “widespread changes in protein phosphorylation”. Moreover, the cell invasion entry in series [8] is on record as “inhibit human prostate cancer (PCa) cell invasion”. Besides, the metastasis entry in [9] is on record as “inhibit”. The “inhibition of MKK4 kinase activity” value at MKK4 is listed as “inhibited the kinase activity”. Further, the “MMP-2 expression in prostate tissue” value in series [10] is “downregulates”.
On to `COc1ccc(-c2coc3cc(OC)cc(O)c3c2=O)cc1` [compound 16], for which, in the series on PC3-M cells, the anti-invasion activity entry is reported as “retains anti-invasion activity”.
